Laboratory results taken from patent US12377095B2, “Use of ligustrazine nitrone derivatives in treatment and prevention of diabetic complication diseases” (QINGDAO HAILAN PHARMACEUTICALS CO., LTD., priority 2019, dated 2025).

Tests used:
[1] = tested on: EPO mRNA; experiment: EPO mRNA by RT-PCR in CoCl2-induced HepG2 cell hypoxia model; conditions: 30 μM, 24 h, HepG2 cells, 50 μM CoCl2
[2] = tested on: STZ-induced SHR rats; experiment: PAS staining, glomerular hardening of STZ-induced SHR rats; assay type: in vivo, rat; conditions: 60 mg/kg
Experimental: (§1) 6 W-age SHR rats were abstained from food but not water for 12 h before injection, and then intraperitoneally injected with 55 mg/kg STZ after weighing (STZ required for fast injection, to be completed within 10 min), then put back to the cage to ensure that rat has sufficient drinking water in the period of 24 h, and the rats of normal control group were injected with citric acid buffer (pH 4.5) in the same volume. After 3 weeks of STZ injection, retinal venous blood was collected, and blood glucose ≥16.7 mmol/L was used as a molding standard, where the model of SHR rats that meet the above criteria is considered successful.
(§2) The route of administration is intragastrical, TBN is administered twice a day (fixed at 9:00-10:00 am and 3:00-4:00 pm), and Losartan is administered once a day (fixed at 9:00-10:00 am), continuously for 6 weeks.
The process is the same as in Example 9.

[3] = tested on: STZ-induced DKD rats; experiment: Retinopathy of STZ-induced DKD rats; assay type: in vivo, rat; conditions: DKD rats after treatment, Table 1 (FIG. 5)
Experimental: (§3) SD rats (200±10 g) were used as model animals, which were fasted for 12 h before injection. STZ was dissolved in citrate buffer at 1% concentration, and rats were fasted and intraperitoneally injected with 55 mg/kg STZ and placed in the cage, the rats being ensured with adequate water intake for 24 h. STZ injections need to be fast and complete within 10 minutes of injection. The normal control group was injected with an equal volume of pH 4.5 citric acid-sodium citrate buffer. The state of the animals (multiple drinking and polyuria) was observed. After 3 weeks of STZ injection, blood was collected from the tail vein, and fasting blood glucose ≥16.7 mmol/L was measured as the standard for diabetic nephropathy in rats.
(§4) DKD rats were randomly assigned to 6 groups and given with different drugs. After 6 weeks of administration, the experiment was terminated and the protective effect of the drug on DKD rats was observed.
During the experiment, the retinopathy of rats was observed during daily administration, and the dates of retinopathy in different groups of rats were recorded.

[4] = tested on: STZ-induced SHR rats; experiment: Body weight of STZ-induced SHR rats; assay type: in vivo, rat; conditions: 60 mg/kg twice/day, 6 weeks
Experimental: as §1, §2
The general situation and weight changes are observed after the establishment of the rat model, and the general situation includes the activity of rats, mental state, hair color, diet, drinking water and urine volume, etc., and water consumption and feed weights were recorded each week.

[5] = tested on: STZ-induced DKD rats; experiment: Serum biochemical parameters of STZ-induced DKD rats; assay type: in vivo, rat; conditions: six weeks after administration, dose-dependent
Experimental: as §3, §4
Six weeks after the administration, the rats were anesthetized, and the blood was taken from the abdominal aorta, and, after standing for 1 hour, was centrifuged at 3000 rmp for 10 min and stored at −70° C. Serum levels of creatinine, urea nitrogen, cholesterol and triglycerides were measured using an automated biochemical analyzer.

[6] = tested on: db/db mice; experiment: 24 h urine microalbumin in db/db mice; assay type: in vivo, mouse; conditions: TBN 10, 30, 60 mg/kg, end of 6 weeks; especially 30 and 60 mg/kg (P<0.001)
Text: db/db mice are congenital obese type 2 DKD mice with spontaneous mutations in the leptin receptor (Leptin receptor, Lepr) due to a point mutation in the leptin receptor gene GT located on chromosome 4. The course of polyphagia, polyuria, diabetes and hyperglycemia is similar to that of humans, and it is currently the most widely used type 2 spontaneous animal model of DKD. The db/db mice have a series of complications with the aggravation of diabetes. The main pathological changes of renal tissue are the expansion of the glomerular mesangial interstitium, the thickening of the glomerular basement membrane, and the excessive accumulation of extracellular matrix. However, the glomerular mesangium of db/db mice changes relatively slowly, and the glomerular mesangium will not be dissolved or nodular glomerulosclerosis, and there is no progressive renal insufficiency. […]
db/db mice were tested for 24 h urine microalbumin in the 4th and 6th week after drug treatment. […] The absorbance value (OD value) was measured at 450 nm wavelength; the blank control hole was used for adjusting zero, the microalbuminuria standard concentration was used as the abscissa, the OD value as the ordinate, the standard curve regression equation was calculated, and on the basis of the regression equation and the sample's OD value, the concentration of the sample was determined.

[7] = tested on: STZ-induced SHR rats; experiment: Serum EPO content in STZ-induced SHR rats; assay type: in vivo, rat; conditions: TBN group (T60), 60 mg/kg

Cc1nc(C)c(/C=[N+](\[O-])C(C)(C)C)nc1C [TBN]
expression of EPO mRNA [1]: significantly increase | degree of glomerular hardening (PAS) vs SHR-STZ group [2]: significantly lower | number of retinopathy [3]: reduced | time when retinopathy occurred [3]: relatively delayed | body weight vs SHR-STZ group [4]: increased significantly | serum cholesterol [5]: significantly reduce | serum creatinine [5]: significantly reduce | serum triglyceride [5]: significantly reduce | serum urea nitrogen [5]: significantly reduce | 24 h urine microalbumin production [6]: dose-dependently reduced | content of EPO in serum vs model group [7]: significantly increased
